Data: ChEMBL document CHEMBL3885881, “DrugMatrix”

Organism: Rattus norvegicus
Test: DrugMatrix - Regimen: Daily Repeat
Type: toxicity, organism-based, Sprague-Dawley
Set-up: regimen Daily Repeat, gender Male, age 6-8 weeks
Conditions: in vivo, po, route oral GAVAGE, […]; for ABSOLUTE BASOPHIL / ABSOLUTE EOSINOPHIL / ABSOLUTE LYMPHOCYTE / ABSOLUTE MONOCYTE / ABSOLUTE SEGMENTED NEUTROPHIL / BASOPHIL / EOSINOPHIL / ERYTHROCYTE COUNT / HEMATOCRIT / HEMOGLOBIN / LEUKOCYTE COUNT / LYMPHOCYTE / MEAN CORPUSCULAR HEMOGLOBIN / MEAN CORPUSCULAR HEMOGLOBIN CONCENTRATION / MEAN CORPUSCULAR VOLUME / MONOCYTE / NEUTROPHIL / NUCLEATED RED BLOOD CELLS / PLATELET COUNT: tissue Blood; for ALANINE AMINOTRANSFERASE / ALKALINE PHOSPHATASE / ASPARTATE AMINOTRANSFERASE / BLOOD UREA NITROGEN / CARBON DIOXIDE / CHLORIDE / CHOLESTEROL / CREATINE PHOSPHOKINASE / CREATININE / GLUCOSE / LACTATE DEHYDROGENASE / LIPASE / PHOSPHORUS / POTASSIUM / SODIUM / TOTAL BILIRUBIN / TOTAL PROTEIN / URIC ACID: tissue Plasma
[1] = 0 mg/kg, 72 h, dose level Control, time 3 day
[2] = 0 mg/kg, 120 h, dose level Control, time 5 day
[3] = 10 mg/kg, 72 h, dose level Low, time 3 day

For CCOC(=O)C1=C(C)NC(C)=C(C(=O)OC)C1c1cccc([N+](=O)[O-])c1 (stereo not given) [NITRENDIPINE], the “ABSOLUTE BASOPHIL” value [1] was 0 CELLS/uL, the “ABSOLUTE EOSINOPHIL” value [1] was 0 CELLS/uL and the “ABSOLUTE LYMPHOCYTE” value [1] was 9244.83 CELLS/uL. The “ABSOLUTE MONOCYTE” value [1] was 102 CELLS/uL, the “ABSOLUTE SEGMENTED NEUTROPHIL” value [1] was 869.83 CELLS/uL and the BASOPHIL [1] was 0%. For the same compound, the EOSINOPHIL [1] was 0%, the “ERYTHROCYTE COUNT” value [1] was 5.43 x10E6/uL and the HEMATOCRIT [1] was 34.03%. For the same compound, the HEMOGLOBIN [1] was 13.27 G/DL, the “LEUKOCYTE COUNT” value [1] was 10.22 x10E3/uL and the LYMPHOCYTE [1] was 90.33%. The “MEAN CORPUSCULAR HEMOGLOBIN” value [1] was 24.48 pg, the “MEAN CORPUSCULAR HEMOGLOBIN CONCENTRATION” value [1] was 39.03 G/DL and the “MEAN CORPUSCULAR VOLUME” value [1] was 62.75 fL. The MONOCYTE [1] was 1%, the NEUTROPHIL [1] was 8.67% and the “NUCLEATED RED BLOOD CELLS” value [1] was 0.17 /100WBC. For the same compound, the “PLATELET COUNT” value [1] was 989 x10E3/uL, the “ALANINE AMINOTRANSFERASE” value [1] was 77 u/L and the “ALKALINE PHOSPHATASE” value [1] was 464.83 u/L. For the same compound, the “ASPARTATE AMINOTRANSFERASE” value [1] was 89.83 u/L, the “BLOOD UREA NITROGEN” value [1] was 12.17 mg/dL and the “CARBON DIOXIDE” value [1] was 34.17 mmol/L. For the same compound, the CHLORIDE [1] was 98.33 MEQ/L, the CHOLESTEROL [1] was 75.17 mg/dL and the “CREATINE PHOSPHOKINASE” value [1] was 367.67 u/L. For the same compound, the CREATININE [1] was 0.16 mg/dL, the GLUCOSE [1] was 142.67 mg/dL and the “LACTATE DEHYDROGENASE” value [1] was 139.33 u/L. The LIPASE [1] was 9.5 u/L, the PHOSPHORUS [1] was 10.85 mg/dL and the POTASSIUM [1] was 6.38 MEQ/L. The SODIUM [1] was 143.2 MEQ/L, the “TOTAL BILIRUBIN” value [1] was 0.2 mg/dL and the “TOTAL PROTEIN” value [1] was 5.77 G/DL. The “URIC ACID” value [1] was 0.7 mg/dL, the “ABSOLUTE BASOPHIL” value [2] was 0 CELLS/uL and the “ABSOLUTE EOSINOPHIL” value [2] was 0 CELLS/uL. The “ABSOLUTE LYMPHOCYTE” value [2] was 8295.33 CELLS/uL, the “ABSOLUTE MONOCYTE” value [2] was 84.67 CELLS/uL and the “ABSOLUTE SEGMENTED NEUTROPHIL” value [2] was 970 CELLS/uL. For the same compound, the BASOPHIL [2] was 0%, the EOSINOPHIL [2] was 0% and the “ERYTHROCYTE COUNT” value [2] was 5.74 x10E6/uL. For the same compound, the HEMATOCRIT [2] was 36.22%, the HEMOGLOBIN [2] was 13.85 G/DL and the “LEUKOCYTE COUNT” value [2] was 9.35 x10E3/uL. The LYMPHOCYTE [2] was 88.67%, the “MEAN CORPUSCULAR HEMOGLOBIN” value [2] was 24.13 pg and the “MEAN CORPUSCULAR HEMOGLOBIN CONCENTRATION” value [2] was 38.25 G/DL. The “MEAN CORPUSCULAR VOLUME” value [2] was 63.08 fL, the MONOCYTE [2] was 1% and the NEUTROPHIL [2] was 10.33%. For the same compound, the “NUCLEATED RED BLOOD CELLS” value [2] was 0.17 /100WBC, the “PLATELET COUNT” value [2] was 883.83 x10E3/uL and the “ALANINE AMINOTRANSFERASE” value [2] was 64.5 u/L. The “ALKALINE PHOSPHATASE” value [2] was 425.67 u/L, the “ASPARTATE AMINOTRANSFERASE” value [2] was 88.5 u/L and the “BLOOD UREA NITROGEN” value [2] was 14.17 mg/dL. The “CARBON DIOXIDE” value [2] was 30.5 mmol/L, the CHLORIDE [2] was 100.33 MEQ/L and the CHOLESTEROL [2] was 55.33 mg/dL. The “CREATINE PHOSPHOKINASE” value [2] was 287.17 u/L, the CREATININE [2] was 0.2 mg/dL and the GLUCOSE [2] was 162.83 mg/dL. The “LACTATE DEHYDROGENASE” value [2] was 111.33 u/L, the LIPASE [2] was 10.5 u/L and the PHOSPHORUS [2] was 10.32 mg/dL. For the same compound, the POTASSIUM [2] was 5.13 MEQ/L, the SODIUM [2] was 143.93 MEQ/L and the “TOTAL BILIRUBIN” value [2] was 0.17 mg/dL. For the same compound, the “TOTAL PROTEIN” value [2] was 5.9 G/DL, the “URIC ACID” value [2] was 0.77 mg/dL and the “ABSOLUTE BASOPHIL” value [3] was 0 CELLS/uL. The “ABSOLUTE EOSINOPHIL” value [3] was 0 CELLS/uL, the “ABSOLUTE LYMPHOCYTE” value [3] was 9214.67 CELLS/uL and the “ABSOLUTE MONOCYTE” value [3] was 145.33 CELLS/uL. The “ABSOLUTE SEGMENTED NEUTROPHIL” value [3] was 940 CELLS/uL, the BASOPHIL [3] was 0% and the EOSINOPHIL [3] was 0%. For the same compound, the “ERYTHROCYTE COUNT” value [3] was 5.43 x10E6/uL, the HEMATOCRIT [3] was 33.93% and the HEMOGLOBIN [3] was 13.03 G/DL. For the same compound, the “LEUKOCYTE COUNT” value [3] was 10.3 x10E3/uL, the LYMPHOCYTE [3] was 89.33% and the “MEAN CORPUSCULAR HEMOGLOBIN” value [3] was 24.03 pg. The “MEAN CORPUSCULAR HEMOGLOBIN CONCENTRATION” value [3] was 38.4 G/DL, the “MEAN CORPUSCULAR VOLUME” value [3] was 62.6 fL and the MONOCYTE [3] was 1.33%. The NEUTROPHIL [3] was 9.33%, the “NUCLEATED RED BLOOD CELLS” value [3] was 0 /100WBC and the “PLATELET COUNT” value [3] was 1124 x10E3/uL. The “ALANINE AMINOTRANSFERASE” value [3] was 72 u/L, the “ALKALINE PHOSPHATASE” value [3] was 422 u/L and the “ASPARTATE AMINOTRANSFERASE” value [3] was 86 u/L. The “BLOOD UREA NITROGEN” value [3] was 10.33 mg/dL, the “CARBON DIOXIDE” value [3] was 34.33 mmol/L and the CHLORIDE [3] was 98.67 MEQ/L. For the same compound, the CHOLESTEROL [3] was 71.67 mg/dL, the “CREATINE PHOSPHOKINASE” value [3] was 319.33 u/L and the CREATININE [3] was 0.11 mg/dL. The GLUCOSE [3] was 145.33 mg/dL, the “LACTATE DEHYDROGENASE” value [3] was 130.67 u/L and the LIPASE [3] was 11.33 u/L. The PHOSPHORUS [3] was 10.8 mg/dL, the POTASSIUM [3] was 6.13 MEQ/L and the SODIUM [3] was 144.4 MEQ/L. The “TOTAL BILIRUBIN” value [3] was 0.2 mg/dL and the “TOTAL PROTEIN” value [3] was 5.6 G/DL.
